Laboratory results published in US7943382B2, “Method for inspecting fat-soluble vitamin and/or fat-soluble food factor by saliva analysis” (Mitsubishi Chemical Medience Corporation, priority 2004, dated 2011).
Values belong to the compound of their own block, whether it stands above or below them.

What was measured:
[1] = Transition of the lycopene and β-carotene levels in parotid saliva on ingestion of lycopene + β-carotene MAX1; type: in vivo, human; conditions: lycopene + β-carotene MAX1, two tablets (20 mg lycopene, 60 mg β-carotene) every morning for a week, then two weeks discontinuation; FIGS. 9 and 10
Description: 2 of 3 volunteers were made to ingest orally two commercial supplement lycopene +β-carotene MAX1 (trade name, Minami Healthy Food Co.) containing 10 mg of lycopene and 30 mg of β-carotene per one tablet (20 mg of lycopene and 60 mg of β-carotene per two tablet) at 7:00 every morning continuously for a week, and as a specimen, parotid saliva was collected from PM 4:00 to 5:00, three times, that is, before ingestion and one week after ingestion and two weeks after discontinuation of ingestion. The volunteer had the mouth rinsed with water, and kept quiet on a chair for 5 minutes, while the volunteer accumulated saliva in the oral cavity and discharged to initialize the oral cavity, followed by collecting saliva. […] The ingestion states of the supplement, that is, before ingestion and one week after ingestion, and two weeks after discontinuation of ingestion, are arranged on the horizontal axis as points, and the concentrations of lycopene and β-carotene (hereinafter, the measured concentrations of lycopene and β-carotene will be referred to “lycopene level” and “β-carotene level” respectively) in parotid saliva are arranged on the vertical axis, and transition of the lycopene and β-carotene levels in parotid saliva depending on ingestion of supplements is shown in FIGS. 9 and 10.

[2] = cited from earlier work
[3] = Transition of the tocopherol level in parotid saliva on ingestion of supplement S; type: in vivo, human; conditions: two tablets (32.8 mg α-tocopherol) every morning for a week, then two weeks discontinuation, 3 volunteers, FIG. 8
Description: 3 volunteers were made to ingest orally two commercial CoQ10 supplement S containing 32.8 mg of tocopherol per two tablets as α-tocopherol at 7:00 every morning continuously for a week, and as a specimen, parotid saliva was collected from PM 4:00 to 5:00, three times, that is, before ingestion and one week after ingestion and two weeks after discontinuation of ingestion. The volunteer had the mouth rinsed with water, and kept quiet on a chair for 5 minutes, while the volunteer accumulated saliva in the oral cavity and discharged to initialize the oral cavity, followed by collecting saliva. […] The ingestion states of the supplement, that is, before ingestion and one week after ingestion, and two weeks after discontinuation of ingestion are arranged on the horizontal axis as points, and the tocopherol concentrations (hereinafter, the measured concentration of tocopherol will be referred to “tocopherol level”) in parotid saliva are arranged on the vertical axis, and transition of the tocopherol level in parotid saliva depending on states of supplements with tocopherol is shown in FIG. 8.

[4] = Chromatograms of parotid saliva specimens A, B and C (HPLC with ECD detection); type: in vivo, human; conditions: Supplement N, one tablet every morning and evening for a month (60 mg CoQ10, 20 mg α-tocopherol per day)
Description: In pretreatment of the specimens, 20 μl of plasma and 180 μl of ethanol (Wako Pure Chemical Industries, Ltd.: HPLC grade) were added to an autosampler vial (sampler vial PP 250 μl: Shiseido Co., Ltd.) to have a final ethanol concentration of 90% (V/V), which was centrifuged under cooling by 1000 G for 5 minutes to precipitate proteins. In the case of directly collected saliva, 150 μl of ethanol was added to 50 μl of the specimen to have a final ethanol concentration of 75% (V/V), which was centrifuged under cooling by 1000 G for 5 minutes to precipitate proteins. […]
Ubidecarenol, tocopherol, lycopene and β-carotene can be quantitatively analyzed at 600 mV. […] Therefore, CoQ10 is converted into ubidecarenol by reducing the carbonyl group to the OH group using the above-mentioned commercial online reduction column, and then detected in an oxidation mode using the amperometry-type electrochemical detector 3005 (Shiseido Co., Ltd.) or the pulse-type electrochemical detector 3016 (Shiseido Co., Ltd.) under the HPLC condition shown in FIGS. 1 and 2, allowing the bulk detection as shown in FIGS. 3 and 4. […]

Compound: CC(C)=CCC/C(C)=C/C=C/C(C)=C/C=C/C(C)=C/C=C/C=C(C)/C=C/C=C(C)/C=C/C=C(\C)CCC=C(C)C [lycopene]
- transition of the level in parotid saliva [1]: obviously increased in the two volunteers who ingested the supplement compared with one volunteer without ingestion, and decreased by discontinuation of ingestion

Compound: CC1=C(/C=C/C(C)=C/C=C/C(C)=C/C=C/C=C(C)/C=C/C=C(C)/C=C/C2=C(C)CCCC2(C)C)C(C)(C)CCC1 [β-carotene]
- detection in the parotid saliva ([2]; Nonpatent document No. 1): could not be detected
- correlation between the serum level and the whole saliva level ([2]; Nonpatent documents No. 1 and 2): positive correlation
- transition of the level in parotid saliva [1]: obviously increased in the two volunteers who ingested the supplement compared with one volunteer without ingestion, and decreased by discontinuation of ingestion

- peak in chromatogram of parotid saliva A (supplement-ingesting volunteer) compared with B (non-ingesting volunteer) [4]: higher peak
Compound: Tocopherol
- transition of the tocopherol level in parotid saliva [3]: increased by ingestion and decreased by discontinuation of ingestion
